Assay results taken from patent publication US10646484B2, “Methods to treat opioid use disorder” (Indivior UK Limited, priority 2017, dated 2020).

Test system: opioid-dependent subjects
Experiment: Concentration-QT analysis pooled across clinical studies
Procedure: A concentration QT analysis was performed for the clinical studies conducted with Formulation D. Matching buprenorphine and norbuprenorphine plasma concentrations and 12-lead electrocardiograms (ECGs) were pooled across clinical studies conducted with Formulation D in opioid-dependent subjects. Concentration-QT models were developed to describe the effects of buprenorphine and norbuprenorphine on corrected QT (QTc) interval, after accounting for the effect of relevant concomitant medications and illicit drug use on heart rate and/or QT in opioid-dependent subjects. Data from the following studies were included in the analysis:
Stable doses of SUBUTEX® tablets ranged between 8 and 24 mg depending on the dose cohort.
Twenty subjects received SUBOXONE® film alone.
Subjects were inducted using SUBOXONE® film for 3 days, followed by 4- to 11-day SUBOXONE® film dose adjustment at doses ranging from 8 to 24 mg QD. SUBOXONE® film was tapered in subjects after amendment of study protocol (Day 1: 6 mg, Days 2 and 3: 4 mg, Days 4 and 5: 2 mg).
The following covariates were evaluated on alpha given their potential to affect heart rate: withdrawal symptoms (as measured by Clinical Opiate Withdrawal Scale (COWS)), clonidine and methocarbamol (used to treat withdrawal symptoms), cocaine, phencyclidine, cannabinoids, barbiturates, and methamphetamines (illicit drugs), amphetamines (taken for therapeutic, e.g., attention-deficit/hyperactivity disorder or illicit use), as well as albuterol (known to increase heart rate).
The following covariates were evaluated on QTcAbs: sex, age, opioids known to have an effect on QTc (methadone, oxycodone), opioids that may have an effect on QTc (hydrocodone, morphine, hydromorphone, oxymorphone, heroin, codeine), or opioids (as a general class, with exact type not recorded in CRF), benzodiazepines, barbiturates, triplicate vs single ECG readings, central vs non-centrally read ECGs, and Holter vs non-Holter. Covariates were selected using individual steps of backward elimination. The concentration-related slope was added and the model was refined. Bootstrap and visual predictive checks were conducted to evaluate model performance.
In addition, the bias-corrected two-sided 90% confidence interval of the Delta QTc distribution was determined using the boot package in R (boot( ) function), where an additional nonparametric bootstrap was performed. If the upper limit of the 90% confidence interval was <10 msec, then an effect of Formulation D on QTc was to be ruled out.

[1] = concentration-QT model covariate

| Structure (SMILES) | change in QTc associated with concomitant or illicit drug (covariate on QTc) [1] | change in QTc associated with concomitant or illicit drug (covariate on QTc) (human, in vivo) |
| --- | --- | --- |
| COc1ccc2c3c1O[C@H]1C(=O)CC[C@@]4(O)[C@@H](C2)N(C)CC[C@]314 [oxycodone] | -1.5 ms | – |
| CCC(=O)C(CC(C)N(C)C)(c1ccccc1)c1ccccc1 (stereo not drawn) [methadone] | +6.1 msec | – |
| OCCOCCN1CCN(C(c2ccccc2)c2ccc(Cl)cc2)CC1 (stereo not drawn) [hydroxyzine] | – | +1.7 msec |
| COC(=O)[C@H]1[C@@H](OC(=O)c2ccccc2)C[C@@H]2CC[C@H]1N2C [cocaine] | +1.7 msec | – |
| c1ccc(C2(N3CCCCC3)CCCCC2)cc1 [phencyclidine] | +3.4 msec | – |
| COc1ccc2c3c1O[C@H]1[C@@H](O)C=C[C@H]4[C@@H](C2)N(C)CC[C@@]341 [codeine] | +1.3 msec | – |
